Source: ChEMBL document CHEMBL3621174, “Synthesis and evaluation of new tyrosyl-tRNA synthetase inhibitors as antibacterial agents based on a N2-(arylacetyl)glycinanilide scaffold” (Eur J Med Chem, 2015)
pIC50: −log10 of the molar value. ≈ marks a conversion by molar mass, not a printed value.

Tests used:
[1] = Inhibition of Staphylococcus aureus Tyrosyl-tRNA synthetase using L-[ring-3,5-3H] tyrosine as substrate after 10 min by liquid scintillation assay
Staphylococcus aureus [2] = experiment: Antibacterial activity against Staphylococcus aureus ATCC 6538 after 24 hr by MTT assay; format: functional; conditions: ATCC 6538, 24 h
Staphylococcus aureus [3] = experiment: Antibacterial activity against Staphylococcus aureus ATCC 25923 after 24 hr by MTT assay; format: functional; conditions: ATCC 25923, 24 h
Escherichia coli [4] = experiment: Antibacterial activity against Escherichia coli ATCC 8739 after 24 hr by MTT assay; format: functional; conditions: ATCC 8739, 24 h
Escherichia coli [5] = experiment: Antibacterial activity against Escherichia coli ATCC 35218 after 24 hr by MTT assay; format: functional; conditions: ATCC 35218, 24 h
Pseudomonas aeruginosa [6] = experiment: Antibacterial activity against Pseudomonas aeruginosa ATCC 9027 after 24 hr by MTT assay; format: functional; conditions: ATCC 9027, 24 h
Staphylococcus aureus [7] = experiment: Potency index, ratio of penicillin G MIC to compound MIC for Staphylococcus aureus ATCC 6538; format: functional
Pseudomonas aeruginosa [8] = experiment: Potency index, ratio of penicillin G MIC to compound MIC for Pseudomonas aeruginosa ATCC 9027; format: functional

Structure (SMILES)	pIC50 [1]	MIC (Staphylococcus aureus [2]) [µM]	MIC (Staphylococcus aureus [3]) [µM]	MIC (Escherichia coli [4]) [µM]	MIC (Escherichia coli [5]) [µM]	MIC (Pseudomonas aeruginosa [6]) [µM]	MIC50 (Staphylococcus aureus [2]) [µM]	MIC50 (Pseudomonas aeruginosa [6]) [µM]	Ratio (Staphylococcus aureus [7])	Ratio (Pseudomonas aeruginosa [8])
COc1ccc(NC(=O)CNC(=O)Cc2ccccc2)cc1	4.09	> 160	> 160	> 160	> 160	> 160	–	–	–	–
COc1ccc(NC(=O)CNC(=O)Cc2ccccc2O)cc1	3.32	> 160	> 160	> 160	> 160	> 160	–	–	–	–
O=C(Cc1ccccc1)NCC(=O)Nc1cccc([N+](=O)[O-])c1	4.32	103 (≈ 32.3 µg/mL)	156 (≈ 48.9 µg/mL)	> 160	> 160	> 160	–	–	–	–
COc1ccc(NC(=O)CNC(=O)Cc2ccccc2Cl)cc1	3.72	> 160	> 160	> 160	> 160	> 160	–	–	–	–
O=C(Cc1ccc(F)cc1)NCC(=O)Nc1ccc([N+](=O)[O-])cc1	5.28	14.1 (≈ 4.67 µg/mL)	17 (≈ 5.63 µg/mL)	42.3 (≈ 14 µg/mL)	75.8 (≈ 25.1 µg/mL)	65.6 (≈ 21.7 µg/mL)	–	–	–	–
COc1ccc(NC(=O)CNC(=O)Cc2cccc(Cl)c2)cc1	4.18	148 (≈ 49.3 µg/mL)	148 (≈ 49.3 µg/mL)	> 160	> 160	> 160	–	–	–	–
COc1ccc(NC(=O)CNC(=O)Cc2ccc(O)cc2)cc1	3.50	> 160	> 160	> 160	> 160	> 160	–	–	–	–
O=C(Cc1ccc(Cl)cc1)NCC(=O)Nc1cc(Cl)cc(Cl)c1	3.60	> 160	> 160	> 160	> 160	> 160	–	–	–	–
NC[C@H]1O[C@H](O[C@H]2[C@H](O)[C@@H](O[C@H]3O[C@H](CO)[C@@H](O)[C@H](N)[C@H]3O)[C@H](N)C[C@@H]2N)[C@H](O)[C@@H](O)[C@@H]1O [KANAMYCIN]	–	–	–	1.26 (≈ 0.61 µg/mL)	4.35 (≈ 2.11 µg/mL)	7.16 (≈ 3.47 µg/mL)	–	–	–	–
COc1ccc(CC(=O)NCC(=O)Nc2ccc([N+](=O)[O-])cc2)cc1OC	4.05	> 160	> 160	> 160	> 160	> 160	–	–	–	–
COc1ccc(NC(=O)CNC(=O)Cc2ccc(Cl)cc2)cc1	4.15	> 160	> 160	> 160	> 160	> 160	–	–	–	–
COc1ccc(NC(=O)CNC(=O)Cc2cccc(F)c2)cc1	4.03	> 160	> 160	> 160	> 160	> 160	–	–	–	–
O=C(Cc1ccccc1)NCC(=O)Nc1ccc(Cl)cc1	4.78	49.7 (≈ 15 µg/mL)	69.2 (≈ 21 µg/mL)	123 (≈ 37.3 µg/mL)	159 (≈ 48.1 µg/mL)	> 160	–	–	–	–
O=C(Cc1ccccc1)NCC(=O)Nc1ccccc1Cl	3.69	> 160	> 160	> 160	> 160	> 160	–	–	–	–
Cc1ccc(NC(=O)CNC(=O)Cc2cccc(Cl)c2)cc1	4.67	64.9 (≈ 20.6 µg/mL)	91.1 (≈ 28.9 µg/mL)	155 (≈ 49.2 µg/mL)	> 160	> 160	–	–	–	–
O=C(Cc1ccccc1)NCC(=O)Nc1ccc([N+](=O)[O-])cc1	6.06	2.81 (≈ 0.88 µg/mL)	3.67 (≈ 1.15 µg/mL)	11.2 (≈ 3.51 µg/mL)	15.8 (≈ 4.95 µg/mL)	18.2 (≈ 5.7 µg/mL)	–	–	–	–
O=C(Cc1ccccc1)NCC(=O)Nc1ccc(Br)cc1	4.30	113 (≈ 39.3 µg/mL)	> 160	> 160	> 160	> 160	–	–	–	–
Cc1ccc(CC(=O)NCC(=O)Nc2ccc([N+](=O)[O-])cc2)cc1	4.35	80.7 (≈ 26.4 µg/mL)	132 (≈ 43.2 µg/mL)	> 160	> 160	> 160	–	–	–	–

Structure (SMILES)	pIC50 [1]	MIC (Staphylococcus aureus [2]) [µM]	MIC (Staphylococcus aureus [3]) [µM]	MIC (Escherichia coli [4]) [µM]	MIC (Escherichia coli [5]) [µM]	MIC (Pseudomonas aeruginosa [6]) [µM]	MIC50 (Staphylococcus aureus [2]) [µM]	MIC50 (Pseudomonas aeruginosa [6]) [µM]	Ratio (Staphylococcus aureus [7])	Ratio (Pseudomonas aeruginosa [8])
O=C(Cc1cccc(Br)c1)NCC(=O)Nc1ccc(Br)cc1	4.23	97.2 (≈ 41.4 µg/mL)	> 160	> 160	> 160	> 160	–	–	–	–
CC1(C)S[C@@H]2[C@H](NC(=O)Cc3ccccc3)C(=O)N2[C@H]1C(=O)O [PENICILLIN G]	–	7.13 (≈ 2.38 µg/mL)	9.28 (≈ 3.1 µg/mL)	–	–	–	–	–	–	–
O=C(Cc1ccccc1Cl)NCC(=O)Nc1ccc([N+](=O)[O-])cc1	5.60	6.51 (≈ 2.26 µg/mL)	8.41 (≈ 2.92 µg/mL)	13.5 (≈ 4.69 µg/mL)	19.7 (≈ 6.85 µg/mL)	34 (≈ 11.8 µg/mL)	–	–	–	–
COc1ccc(NC(=O)CNC(=O)Cc2ccc(F)cc2)cc1	3.95	> 160	> 160	> 160	> 160	> 160	–	–	–	–
O=C(Cc1cccc(O)c1)NCC(=O)Nc1ccc([N+](=O)[O-])cc1	5.19	15.2 (≈ 5.01 µg/mL)	18.4 (≈ 6.06 µg/mL)	47.1 (≈ 15.5 µg/mL)	89.4 (≈ 29.4 µg/mL)	72 (≈ 23.7 µg/mL)	–	–	–	–
O=C(Cc1cccc(F)c1)NCC(=O)Nc1ccc([N+](=O)[O-])cc1	5.94	3.14 (≈ 1.04 µg/mL)	4.11 (≈ 1.36 µg/mL)	12.3 (≈ 4.08 µg/mL)	19.6 (≈ 6.49 µg/mL)	18.2 (≈ 6.03 µg/mL)	–	–	–	–
O=C(Cc1ccccc1)NCC(=O)Nc1cccc(Cl)c1	3.84	> 160	> 160	> 160	> 160	> 160	–	–	–	–
O=C(Cc1ccccc1Cl)NCC(=O)Nc1ccc(Br)cc1	4.11	69.7 (≈ 26.6 µg/mL)	103 (≈ 39.5 µg/mL)	> 160	> 160	> 160	–	–	–	–
O=C(Cc1ccccc1)NCC(=O)Nc1cc(Cl)cc(Cl)c1	3.88	> 160	> 160	> 160	> 160	> 160	–	–	–	–
O=C(Cc1ccc(O)cc1)NCC(=O)Nc1ccc([N+](=O)[O-])cc1	4.99	28.6 (≈ 9.42 µg/mL)	34.1 (≈ 11.2 µg/mL)	86.9 (≈ 28.6 µg/mL)	144 (≈ 47.4 µg/mL)	134 (≈ 44.1 µg/mL)	–	–	–	–
O=C(Cc1ccccc1)NCC(=O)Nc1ccccc1	4.71	52.7 (≈ 14.1 µg/mL)	73.5 (≈ 19.7 µg/mL)	134 (≈ 35.9 µg/mL)	> 160	> 160	–	–	–	–
O=C(Cc1ccccc1)NCC(=O)Nc1cc(F)cc(F)c1	4.88	40.5 (≈ 12.3 µg/mL)	47.7 (≈ 14.5 µg/mL)	120 (≈ 36.5 µg/mL)	> 160	148 (≈ 45.1 µg/mL)	–	–	–	–
COc1ccc(NC(=O)CNC(=O)Cc2ccc(OC)c(OC)c2)cc1	3.25	> 160	> 160	> 160	> 160	> 160	–	–	–	–
O=C(Cc1cccc(Cl)c1)NCC(=O)Nc1ccc([N+](=O)[O-])cc1	6.15	1.84 (≈ 0.64 µg/mL)	2.36 (≈ 0.821 µg/mL)	6.8 (≈ 2.36 µg/mL)	9.5 (≈ 3.3 µg/mL)	10.1 (≈ 3.51 µg/mL)	0.52 (≈ 0.181 µg/mL)	3.37 (≈ 1.17 µg/mL)	3	3.9
COc1ccc(NC(=O)CNC(=O)Cc2cccc(O)c2)cc1	3.55	> 160	> 160	> 160	> 160	> 160	–	–	–	–
O=C(Cc1cccc(Cl)c1)NCC(=O)Nc1ccc(Br)cc1	5.08	20.9 (≈ 7.98 µg/mL)	24.9 (≈ 9.5 µg/mL)	62.4 (≈ 23.8 µg/mL)	83.4 (≈ 31.8 µg/mL)	96.1 (≈ 36.7 µg/mL)	–	–	–	–
COc1ccc(NC(=O)CNC(=O)Cc2ccccc2)cc1OC	3.79	> 160	> 160	> 160	> 160	> 160	–	–	–	–
